ChEMBL document CHEMBL3301361, “Experimental in vitro DMPK and physicochemical data on a set of publicly disclosed compounds”
In brackets after ≈: the same amount, converted by molar mass.

Key:
physchem [1] = conditions: octan-1-ol/water
in vitro [2] = conditions: human, plasma
in vitro [3] = conditions: SD, HW or BN, rat, plasma
in vitro [4] = conditions: Beagle, dog, plasma
in vitro [5] = conditions: hepatocytes
in vitro [6] = conditions: human, hepatocytes
physchem [7] = assay: physchem
in vitro [8] = conditions: human
physchem [9] = conditions: pH 7.4 buffer

SMILES	logD (physchem [1]; pH 7.4, LogD7.4)	fraction unbound at 5 h (in vitro [2]; PPB)	fraction unbound at 5 h (in vitro [3])	fraction unbound at 5 h (in vitro [4])	hepatocyte CLint (in vitro [5]) [µL/min/1e6 cells]	hepatocyte CLint (in vitro [6]) [µL/min/1e6 cells]	pKa (physchem [7])	fraction unbound at 5 h (in vitro [2])	microsomal CLint (in vitro [8]; microsomes) [µL/min/mg]	microsomal CLint (in vitro [8]; liver microsomes) [µL/min/mg]	solubility thermodynamic (physchem [9]) [µM]	logD (physchem [1]; pH 7.4)
O=C(O)COc1ccc(Cl)cc1CN1CCN(S(=O)(=O)c2ccc(F)cc2)CC1	0.99	0.0101	0.089	0.0768	< 3	< 3	–	–	–	–	–	–
O=C(O)COc1ccc(Cl)cc1CN1CCN(S(=O)(=O)Cc2ccccc2)CC1	0.33	0.0067	0.114	0.0343	–	< 3	–	–	–	–	–	–
CC[C@H](CO)Nc1nc(SCc2ccccc2)nc2[nH]c(=O)sc12	–	0.0016	–	0.0053	–	10	–	–	–	–	–	–
CCNC(=O)C[C@@H]1N=C(c2ccc(Cl)cc2)c2cc(OC)ccc2-n2c(C)nnc21 [MOLIBRESIB]	–	–	0.314	0.324	10.2	–	2.1	0.24	14.1	–	–	–
CCOc1cc2ncc(C(N)=O)c(Nc3ccc(C)cc3F)c2cc1N1CCN(C)CC1	–	–	0.151	0.183	12	–	–	–	26	–	–	–
COc1cc(-n2cnc3cc(-c4ccc(Cl)cc4)sc3c2=O)ccc1OC[C@H](OP(=O)(O)O)C1CC1 [BMS-830216]	-0.04	0.0061	–	0.0084	–	12.3	–	–	–	< 3	–	–
Cc1c(OC2CCN(CC3CCN([C@@](C)(Cc4ccc(F)cc4)C(=O)O)CC3)CC2)ccc(Cl)c1Cl	–	–	0.0752	0.0568	< 3	–	–	–	–	< 3	–	–
O=C(NCC12CC3CC(CC(C3)C1)C2)c1cc(OC2CCNCC2)ccc1Cl	1.83	–	–	0.0768	–	–	9	–	28	–	–	–
C[C@H](CO)Nc1nc(SCc2ccccc2)nc2[nH]c(=O)sc12	2.86	0.0029	–	0.0219	< 3	19.4	–	–	–	4	53.7 (≈ 18.7 µg/mL)	–
Cc1ncc2n1-c1ccc(Cl)cc1C(c1ccccc1F)=NC2 [MIDAZOLAM]	–	–	0.0457	0.02	121	32.4	6.11	0.0175	–	–	72.4 (≈ 23.6 µg/mL)	–
COc1ccc(CCN2C(=O)N(NS(C)(=O)=O)C[C@@H]2c2ccc(OC)cc2)cc1	–	0.0477	0.0191	0.0854	–	19.1	–	–	–	–	–	–
COc1ccnc(NC2CCN(C(=O)c3ccc(C#N)cc3)CC2)c1	1.73	–	–	0.0532	–	–	7.1	–	–	–	–	–
CC(C)(N)C(=O)N[C@H](COCc1ccc(F)cc1F)C(=O)N1CCC2=NN(CC(F)(F)F)C(=O)[C@]2(Cc2ccccn2)C1	–	–	0.511	0.454	–	15.5	–	–	–	–	–	–
Cc1n[nH]c(C)c1Cc1sc2c(c1C(=O)N1C[C@H](O)CO1)c(=O)n(C)c(=O)n2CC(C)C	1.07	0.489	–	0.656	–	–	3.4	–	–	4	–	–
Cc1ccc(S(=O)(=O)Nc2c(C(=O)N[C@@H](C)C(C)(C)C)c(C)nn2C2CCOCC2)cc1	–	0.208	0.166	0.529	< 3	–	–	–	–	7	–	–
CCN(CC)CCN1C(=O)C(O)(c2ccccc2Cl)c2c1cc(C(N)=O)cc2C(F)(F)F (stereo not drawn)	–	–	–	0.212	–	15.1	–	–	–	–	–	–
CCN(CC)CCN1C(=O)[C@@](O)(c2ccccc2Cl)c2c1cc(C(N)=O)cc2C(F)(F)F	–	–	0.212	0.19	56.2	11.5	–	0.289	93.3	–	–	2.4
CCCCC1=NC2(CCCC2)C(=O)N1Cc1ccc(-c2ccccc2-c2nnn[nH]2)cc1 [IRBESARTAN]	–	–	–	0.0146	9.01	10.5	–	–	17.8	–	891 (≈ 382 µg/mL)	–
CC(C)Oc1ccc2c(=O)c(-c3ccccc3)coc2c1 [IPRIFLAVONE]	4.07	0.0053	0.0056	0.0051	110	–	–	–	–	–	2.8 (≈ 0.785 µg/mL)	–
Cc1cn([C@H]2CCCN([C@H](C)c3ccc(C(=O)O)c(Oc4cccc(Cl)c4)c3)C2)c(=O)[nH]c1=O	-0.3	0.0156	0.0293	0.101	3.39	–	–	–	–	–	–	–
CCCc1nn(C)c2c(=O)[nH]c(-c3cc(S(=O)(=O)N4CCN(C)CC4)ccc3OCC)nc12	2.8	0.0447	0.0988	0.176	> 150	16.6	–	–	–	132	–	–

SMILES	logD (physchem [1]; pH 7.4, LogD7.4)	fraction unbound at 5 h (in vitro [2]; PPB)	fraction unbound at 5 h (in vitro [3])	fraction unbound at 5 h (in vitro [4])	hepatocyte CLint (in vitro [5]) [µL/min/1e6 cells]	hepatocyte CLint (in vitro [6]) [µL/min/1e6 cells]	pKa (physchem [7])	fraction unbound at 5 h (in vitro [2])	microsomal CLint (in vitro [8]; microsomes) [µL/min/mg]	microsomal CLint (in vitro [8]; liver microsomes) [µL/min/mg]	solubility thermodynamic (physchem [9]) [µM]	logD (physchem [1]; pH 7.4)
CCCC(=O)Nc1ccc(OCC(O)CNC(C)C)c(C(C)=O)c1 (stereo not drawn) [ACEBUTOLOL]	–	–	0.711	0.788	–	–	9.45	–	–	–	–	–
N#Cc1cccc(-c2cc(C(F)(F)F)ccc2OCC(=O)O)c1	0.05	0.0139	0.035	0.0358	< 3	< 3	–	–	–	< 3	–	–
CCC(=O)O[C@]1(C(=O)SCF)[C@H](C)C[C@H]2[C@@H]3C[C@H](F)C4=CC(=O)C=C[C@]4(C)[C@@]3(F)[C@@H](O)C[C@@]21C [FLUTICASONE PROPIONATE]	–	0.0191	0.0153	0.0116	107	> 150	–	–	–	–	–	–
CC(C)(C)NC(=O)NCCN1CCN(CC(=O)NC23CC4CC(CC(C4)C2)C3)CC1	–	–	–	0.24	–	33.9	–	–	–	–	–	–
CCCc1nc2c(C)cc(-c3nc4ccccc4n3C)cc2n1Cc1ccc(-c2ccccc2C(=O)O)cc1	2.21	0.0077	0.0038	0.0175	–	3.98	–	–	–	< 3	–	–
COC(=O)C1=C(C)NC(C)=C(C(=O)OCCN(C)Cc2ccccc2)C1c1cccc([N+](=O)[O-])c1 (stereo not drawn) [NICARDIPINE]	–	–	0.0039	0.004	–	–	7.26	–	–	–	7.4 (≈ 3.55 µg/mL)	–
C[C@H](CO)Nc1[nH]c(SCc2ccccc2F)nc2nc(=O)sc1-2	3	–	–	0.0171	28	30.1	–	–	–	3	8.1 (≈ 2.97 µg/mL)	–
CC(C)(C)NC(=O)c1ccc(Oc2cc(F)c(CC(=O)O)cc2Cl)c(NS(=O)(=O)c2ccc(C3CC3)cc2Cl)c1 [VIDUPIPRANT]	–	0.0015	–	0.0039	6	6	–	–	–	< 3	851 (≈ 519 µg/mL)	–
CCOC(=O)C1=C(C)NC(C)=C(C(=O)OC)C1c1cccc([N+](=O)[O-])c1 (stereo not drawn) [NITRENDIPINE]	–	0.009	0.0077	0.0108	75	–	–	–	–	85	–	–
O=C(O)COc1ccc(Cl)cc1CN1CCN(S(=O)(=O)c2ccccc2)CC1	0.49	0.0383	0.132	0.04	–	–	6.8	–	–	–	–	–
CC(C)(N)C(=O)N[C@H](COCc1ccccc1)C(=O)N1CCC2(CC1)CN(S(C)(=O)=O)c1ccccc12 [IBUTAMOREN]	1.4	0.232	0.253	0.212	–	14.4	–	–	–	–	–	–
N#Cc1ccc(C(F)(F)F)nc1O[C@H](CCN)c1ccno1	-0.49	0.557	–	0.535	–	–	9.5	–	–	–	–	–
CC(C)(C)NC(=O)NCCN1CC(NC(=O)c2cc(Cl)cc(Cl)c2)C1	–	0.0928	0.101	0.0784	–	3.31	–	–	–	–	–	–
C[C@H]1CN(Cc2cc(Cl)ccc2OCC(=O)O)CCN1C(=O)Cc1ccc(Cl)cc1	–	–	0.0383	0.0262	< 3	< 3	–	0.0187	–	< 3	–	–
O=C(NCC12CC3CC(CC(C3)C1)C2)c1cc(N2CCNCC2)ncc1Cl	–	–	–	0.0736	–	–	8.5	–	–	10	–	–
COc1ccc(CCN2C(=O)N(NS(C)(=O)=O)C[C@H]2c2ccc(OC)cc2)cc1	–	0.0633	0.0568	0.089	–	21.9	–	–	–	–	–	–
CC[C@H](C)C(=O)O[C@H]1C[C@H](O)C=C2C=C[C@H](C)[C@H](CC[C@@H](O)C[C@@H](O)CC(=O)O)[C@H]21 [PRAVASTATIN]	-0.76	–	0.349	0.608	27	< 3	–	–	< 3	–	–	–
Cc1ccc(C(=O)c2ccc(CC(=O)O)n2C)cc1 [TOLMETIN]	-1.02	0.0028	0.0287	0.0477	7.33	–	–	–	4	–	–	–
CC(C)NCC(O)COc1ccc(COCCOC(C)C)cc1 (stereo not drawn) [BISOPROLOL]	0.1	–	0.768	0.743	25.1	–	9.87	–	–	–	–	–
CCN(C(=O)c1cnn(-c2ccccc2)c1NS(=O)(=O)c1ccc(-c2cnco2)cc1)C1CCCCC1	1.46	0.013	0.0057	0.0025	35	9.5	–	–	–	137	204 (≈ 106 µg/mL)	–
